Measured values reported in patent publication US20240115715A1, “PHARMACEUTICAL COMPOSITIONS FOR VAPORIZATION AND INHALATION” (GROW BIOTECH PLC, priority 2022, published 2024).

Test: Thermogravimetric analysis (TGA) / DSC of API vaporisation from crosslinked β-cyclodextrin micro sponge complex under nitrogen purge
Assay type: physicochemical
Procedure: Differential scanning calorimetry (“DSC”) and thermogravimetric analysis (“TGA”) was performed on a Netzsch STA 409PC/PG with Infrared (“IR”) analysis of the volatiles under a purge of nitrogen gas. TGA was completed at a temperature of 250° C.
The suitability of an API for vaping from the insoluble β-cyclodextrin micro sponge, or from other crosslinked polysaccharide micro sponges, can be tested using TGA. When TGA is applied, a sample of API bound with the insoluble β-cyclodextrin micro sponge is heated at a constant rate, simulating the heat used in a vaporisation device. The sample is kept under a constant flow of nitrogen gas, simulating the inhalation of the user, drawing volatile compounds away from the heated sample.
Vaporization kinetics refer to the rate of dissociation of the API as vapour from the micro sponge, as determined by TGA.

C=C(C)[C@@H]1CCC(C)=C[C@H]1c1c(O)cc(CCCCC)cc1O [CBD, cannabidiol]
onset temperature of vaporisation of CBD (TGA) (Example I, ramp rate 10° C. min^-1): 160 °C

CCCCCc1cc(O)c(C/C=C(\C)CCC=C(C)C)c(O)c1 [CBG, cannabigerol]
onset temperature of vaporisation of API (TGA) (Examples II, IV, V, VI, ramp rate 5° C. min^-1): 190 °C

CCCCCc1cc(O)c(C/C=C(\C)CCC=C(C)C)c(O)c1C(=O)O [CBGA, cannabigerolic acid]
onset temperature of vaporisation of CBG following decarboxylation from CBGA (TGA) (Example III, ramp rate 5° C. min^-1): 190 °C
